pIC50: −log10 of the molar value. Structures can show the parent of a compound that is named as a salt.

What is called pIC50 is −log10 of the IC50, conventionally taken in molar units.

In the test the target is T1, Fatty-acid amide hydrolase 1 [33-574] (Rattus norvegicus, UniProt P97612).
T1 construct: 33-574
T1 sequence (P97612 whole entry): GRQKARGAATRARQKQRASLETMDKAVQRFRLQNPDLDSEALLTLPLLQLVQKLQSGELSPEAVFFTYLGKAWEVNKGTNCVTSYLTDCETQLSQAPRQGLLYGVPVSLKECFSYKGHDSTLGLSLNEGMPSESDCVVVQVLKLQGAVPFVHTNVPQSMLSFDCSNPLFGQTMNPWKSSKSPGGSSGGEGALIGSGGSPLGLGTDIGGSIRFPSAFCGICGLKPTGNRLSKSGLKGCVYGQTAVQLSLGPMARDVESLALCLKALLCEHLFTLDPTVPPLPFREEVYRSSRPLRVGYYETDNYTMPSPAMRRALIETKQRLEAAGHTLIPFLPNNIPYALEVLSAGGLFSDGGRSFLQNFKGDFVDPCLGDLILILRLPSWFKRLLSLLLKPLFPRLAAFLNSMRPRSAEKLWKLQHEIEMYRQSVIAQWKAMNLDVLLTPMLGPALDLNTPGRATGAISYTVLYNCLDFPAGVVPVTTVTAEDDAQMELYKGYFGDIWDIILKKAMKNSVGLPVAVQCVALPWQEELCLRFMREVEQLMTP
`N#CCc1cccc(C(F)(F)F)c1` [2‐[3‐(trifluoromethyl)phenyl]acetonitrile (Hit 13)] showed a pIC50 of 3.14.
As to `O=C(c1ccc(Cl)cc1)C(F)(F)F` [1‐(4‐chlorophenyl)‐2,2,2‐trifluoroethanone (Hit 3)], the pIC50 is 4.59.
With `CS(=O)(=O)c1ccc(N)c(F)c1` [2‐fluoro‐4‐methanesulfonylaniline (Hit 4)], the pIC50 is 4.24.
With `O=C(O)C1(C(F)(F)F)CCC1` [1‐(trifluoromethyl)cyclobutane‐1‐carboxylic acid (Hit 9)] the figure was 3.33.
With `O=C1CCCc2c1cnc1nc(C(F)(F)F)nn21` [2‐(trifluoromethyl)‐7H,8H,9H‐[1,2,4]triazolo[1,5‐ a]quinazolin‐6‐one (Hit 2)] the figure was 5.52; with `FC(F)(F)c1ccccc1N1CCNCC1` [1‐[2‐(trifluoromethyl)phenyl]piperazine hydrochloride (Hit 1)], 5.38.
The molecule `O[C@@H](c1ccccc1)C(F)(F)F` [(1S)‐2,2,2‐trifluoro‐1‐phenylethanol (Hit 12)] gave a pIC50 of 3.25. This pIC50 lies 2.13 log units lower than the previous one.
With `O=C(O)Cn1ccc(C(F)(F)F)n1` [[3‐(trifluoromethyl)pyrazol‐1‐yl]acetic acid (Hit 7)], the pIC50 was 3.83.
With `OC1(C(F)(F)F)CC(c2ccccc2)N=N1` (stereo unspecified) [5‐phenyl‐3‐(trifluoromethyl)‐2,4‐dihydropyrazol‐3‐ ol (Hit 6)] the figure was 4.49; with `O=C(Nc1cnc2[nH]ccc2c1)c1cccc(Cl)c1Cl` [2,3‐dichloro‐N‐{1H‐pyrrolo[2,3‐b]pyridin‐5‐ yl}benzamide (Compound 2)], 7.02.
For the molecule `Cc1ccc(OC(=O)NC2CCCCC2)cc1-c1cccc(C(N)=O)c1` [3‐(3‐carbamoylphenyl)‐4‐methylphenyl N‐ cyclohexylcarbamate (Compound 1)], the negative logarithm of the IC50 (pIC50) was 7.22.
As for `NC(=O)c1cccc(-c2cc(OC(=O)NC3CCCCC3)ccc2C(=O)O)c1`, the figure is 5.40; as for `Oc1cccc(C(F)(F)F)c1` [M‐trifluoromethylphenol (Hit 5)], 3.35; as for `O=C(n1nc2ccccc2n1)C(F)(F)F` [1‐(1,2,3‐benzotriazol‐2‐yl)‐2,2,2‐ trifluoroethanone (Hit 14)], 3.40.
Turning to `O=C(O)c1cccnc1Nc1cccc(C(F)(F)F)c1` [NSC_4488], the pIC50 was 3.79.
The molecule `NCc1cccc(C(F)(F)F)c1` [[3‐(trifluoromethyl)phenyl]methanamine (Hit 8)] had a pIC50 of 3.57. Against the preceding molecule, the pIC50 is 0.22 log units lower.
The molecule `OC(c1ccc(Cl)cc1)C(F)(F)F` (stereo unspecified) [1‐(4‐chlorophenyl)‐2,2,2‐trifluoroethanol (Hit 11)] showed a pIC50 of 3.84.
In the case of `O=C(O)c1cc(=O)cc(C(F)(F)F)o1` [4‐oxo‐6‐(trifluoromethyl)pyran‐2‐carboxylic acid (Hit 10)], the pIC50 is 3.86.
As for `FC(F)(F)c1cc(-c2ccccc2)nc2ncnn12` [5‐phenyl‐7‐(trifluoromethyl)‐[1,2,4]triazolo[1,5‐ a]pyrimidine (Hit 15)], the pIC50 is 3.96.
`Nc1nc(F)nc2c1ncn2C1O[C@H](CO)[C@@H](O)[C@H]1O` (stereo partly drawn) [(3R,4S,5R)‐2‐(6‐amino‐2‐fluoropurin‐9‐yl)‐5‐ (hydroxymethyl)oxolane‐3,4‐diol (Hit 17)] showed a pIC50 of 2.95. This pIC50 lies 1.01 log units lower than the previous one.
`Nc1cccc(C(=O)Nc2cc(=O)n(CC(F)(F)F)[nH]2)c1` [3‐amino‐N‐[5‐hydroxy‐1‐(2,2,2‐ trifluoroethyl)pyrazol‐3‐yl]benzamide (Hit 18)] showed a pIC50 of 2.88.
